14 compounds from BindingDB's records for doi:10.1021/jm00046a020 (Purdue University, 1994) can be followed below.

A word on the IC50: it is the concentration that gives 50% inhibition.

This assay concerns the target Tyrosine-protein kinase transforming protein Src (Rous sarcoma virus). Nature of the assay: Inhibition of in vitro protein-tyrosine kinase activity of p60v-src enzyme in presence of 5 uM ATP.

With `Nc1cccc(-c2cc(=O)c3c(N)c(O)c(N)cc3o2)c1` [5,7-Diamino-2-(3-amino-phenyl)-6-hydroxy-chromen-4-one], the IC50 is 38.4 µM. To `Nc1ccc(-c2cc(O)c3c(=O)c(N)ccc-3o2)cc1` [6-Amino-2-(4-amino-phenyl)-5-hydroxy-chromen-4-one] belongs more than 50 µM.

On to `Nc1ccc(-c2cc(=O)c3cc(N)c(O)c(N)c3o2)cc1` [6,8-Diamino-2-(4-amino-phenyl)-7-hydroxy-chromen-4-one], for which the IC50 was more than 50 µM.

As to `Nc1cccc(-c2cc(=O)c3cc(N)c(O)cc3o2)c1` [6-Amino-2-(3-amino-phenyl)-7-hydroxy-chromen-4-one], the IC50 is more than 50 µM. As for `Nc1ccc(-c2cc(=O)c3cc(N)ccc3o2)cc1` [6-Amino-2-(4-amino-phenyl)-chromen-4-one], the concentration for half-maximal inhibition (IC50) came out at 28.8 µM. For `COc1cc(N)c2oc(-c3ccc(N)cc3)cc(=O)c2c1` [8-Amino-2-(4-amino-phenyl)-6-methoxy-chromen-4-one] the value was more than 50 µM; for `Nc1cccc(-c2cc(=O)c3cc(N)ccc3o2)c1` [6-Amino-2-(3-amino-phenyl)-chromen-4-one], more than 50 µM.

With `Nc1ccc(-c2cc(=O)c3cc(O)cc(N)c3o2)cc1` [8-Amino-2-(4-amino-phenyl)-6-hydroxy-chromen-4-one], the IC50 was more than 50 µM.

Take `Nc1ccc(-c2cc(=O)c3cc(N)c(O)cc3o2)cc1` [6-Amino-2-(4-amino-phenyl)-7-hydroxy-chromen-4-one]: the half-maximal inhibitory concentration (IC50) was more than 50 µM. To `Nc1ccc(-c2cc(=O)c3c(O)ccc(N)c3o2)cc1` [8-Amino-2-(4-amino-phenyl)-5-hydroxy-chromen-4-one] belongs more than 50 µM; to `Nc1ccc(-c2cc(=O)c3c(N)c(O)c(N)cc3o2)cc1` [5,7-Diamino-2-(4-amino-phenyl)-6-hydroxy-chromen-4-one], more than 50 µM; to `Nc1ccc(-c2cc(=O)c3cccc(N)c3o2)cc1` [8-Amino-2-(4-amino-phenyl)-chromen-4-one], more than 50 µM. To `Nc1ccc(-c2cc(=O)c3ccc(O)c(N)c3o2)cc1` [8-Amino-2-(4-amino-phenyl)-7-hydroxy-chromen-4-one] belongs more than 50 µM; to `Nc1ccc(-c2cc(=O)c3cc(N)cc(N)c3o2)cc1` [6,8-Diamino-2-(4-amino-phenyl)-chromen-4-one], more than 50 µM.
